Assay results from patent US20030100515A1, “Benzophenone glycopyranosides, preparation and therapeutic use” (priority 1999, published 2003).
Marks after values point to notes of the source that are not given here.

System: female mice of the C57BL/6J strain
Test: Lowering of serum cholesterol level in mice subjected to a fatty diet (single oral dose)
Format: in vivo
Conditions: total serum cholesterol, female C57BL/6J mice on fatty diet (1.25% cholesterol, 0.5% cholic acid)
Procedure: The antiatheromatous activity of the compounds according to the invention was evaluated as a function of their ability to lower the serum cholesterol level in mice subjected to a fatty diet. […] This correlation affords a test which is more rapid than direct experiments on the atheromatous plaque, which require a lengthy treatment of the animals and an expensive histological study of the walls of the aortic arch.
The test used consists in administering a single dose of the compound to female mice of the C57BL/6J strain. The protocol is as follows: On the first day (D0), the mice are fasted from 9 am to 5 pm, a blood sample being taken at 2 pm. At 5 pm, a given amount of food (a fatty diet comprising 1.25% of cholesterol and 0.5% of cholic acid) is distributed. On the second day (D1), the food leftovers are weighed at 9 am and the mice are fasted from 9 am to 2 pm. A blood sample is taken at 2 pm. For the treated groups of mice, the compound is administered at 9 am on the second day (D1) by tubage in the form of a suspension in a 3% aqueous solution of gum. The control groups receive only the aqueous gum.
[…] The total serum cholesterol is assayed and the results are expressed as the percentage inhibition of the increase in cholesterolemia compared with the control group.

[1] = single dose 100 mg/kg by tubage

CC(=O)O[C@@H]1[C@H](Oc2ccc(C(=O)c3ccc(C#N)cc3)cc2)OC[C@@H](OC(C)=O)[C@H]1OC(C)=O [Example 1, [4-(4-Cyanobenzoyl)phenyl] 2,3,4-tri-O-acetyl-β-D-arabinopyranoside]
Activity (%): percentage inhibition of the increase in cholesterolemia compared with the control group [1]: −25%

N#Cc1ccc(C(=O)c2ccc(O[C@@H]3OC[C@@H](O)[C@@H](O)[C@@H]3O)cc2)cc1 [Example 2, [4-(4-Cyanobenzoyl)phenyl] β-D-arabinopyranoside]
Activity (%): percentage inhibition of the increase in cholesterolemia compared with the control group [1]: −29%

N#Cc1ccc(C(=O)c2ccc(O[C@@H]3OC[C@@H](O)[C@H](O)[C@@H]3O)cc2)cc1 [Example 3, [4-(4-Cyanobenzoyl)phenyl] β-D-lyxopyranoside]
Activity (%): percentage inhibition of the increase in cholesterolemia compared with the control group [1]: −28%

CC(=O)O[C@H]1[C@H](Oc2ccc(C(=O)c3ccc(C#N)cc3)cc2)OC[C@@H](OC(C)=O)[C@H]1OC(C)=O [Example 4, [4-(4-Cyanobenzoyl)phenyl] 2,3,4-tri-O-acetyl-β-D-ribopyranoside]
Activity (%): percentage inhibition of the increase in cholesterolemia compared with the control group [1]: −23%

N#Cc1ccc(C(=O)c2ccc(O[C@@H]3OC[C@@H](O)[C@@H](O)[C@H]3O)cc2)cc1 [Example 5, [4-(4-Cyanobenzoyl)phenyl] β-D-ribopyranoside]
Activity (%): percentage inhibition of the increase in cholesterolemia compared with the control group [1]: −36%

CC(=O)OC[C@H]1O[C@@H](Oc2ccc(C(=O)c3ccc(C#N)cc3)cc2)[C@H](OC(C)=O)[C@@H](OC(C)=O)[C@H]1OC(C)=O [Example 6, [4-(4-Cyanobenzoyl)phenyl] 2,3,4,6-tetra-O-acetyl-β-D-galactopyranoside]
Activity (%): percentage inhibition of the increase in cholesterolemia compared with the control group [1]: −33%

N#Cc1ccc(C(=O)c2ccc(O[C@@H]3O[C@H](CO)[C@H](O)[C@H](O)[C@H]3O)cc2)cc1 [Example 7, [4-(4-Cyanobenzoyl)phenyl] β-D-galactopyranoside]
Activity (%): percentage inhibition of the increase in cholesterolemia compared with the control group [1]: −32%

CC(=O)OC[C@H]1O[C@@H](Oc2ccc(C(=O)c3ccc(C#N)cc3)cc2)[C@@H](OC(C)=O)[C@@H](OC(C)=O)[C@@H]1OC(C)=O [Example 8, [4-(4-Cyanobenzoyl)phenyl] 2,3,4,6-tetra-O-acetyl-β-D-mannopyranoside]
Activity (%): percentage inhibition of the increase in cholesterolemia compared with the control group [1]: −17%

N#Cc1ccc(C(=O)c2ccc(O[C@@H]3O[C@H](CO)[C@@H](O)[C@H](O)[C@@H]3O)cc2)cc1 [Example 9, [4-(4-Cyanobenzoyl)phenyl] β-D-mannopyranoside]
Activity (%): percentage inhibition of the increase in cholesterolemia compared with the control group [1]: −39%

CC(=O)O[C@@H]1[C@@H](OC(C)=O)[C@@H](Oc2ccc(C(=O)c3ccc(C#N)cc3)cc2)OC[C@@H]1OC(C)=O [Example 10, [4-(4-Cyanobenzoyl)phenyl] 2,3,4-tri-O-acetyl-β-L-arabinopyranoside]
Activity (%): percentage inhibition of the increase in cholesterolemia compared with the control group [1]: −22%

N#Cc1ccc(C(=O)c2ccc(O[C@H]3OC[C@H](O)[C@H](O)[C@H]3O)cc2)cc1 [Example 11, [4-(4-Cyanobenzoyl)phenyl] β-L-arabinopyranoside]
Activity (%): percentage inhibition of the increase in cholesterolemia compared with the control group [1]: −31%

CC(=O)O[C@@H]1[C@@H](Oc2ccc(C(=O)c3ccc(C#N)cc3)cc2)OC[C@H](OC(C)=O)[C@H]1OC(C)=O [Example 12, [4-(4-Cyanobenzoyl)phenyl] 2,3,4-tri-O-acetyl-β-L-xylopyranoside]
Activity (%): percentage inhibition of the increase in cholesterolemia compared with the control group [1]: −45%

N#Cc1ccc(C(=O)c2ccc(O[C@H]3OC[C@H](O)[C@@H](O)[C@@H]3O)cc2)cc1 [Example 13, [4-(4-Cyanobenzoyl)phenyl] β-L-xylopyranoside]
Activity (%): percentage inhibition of the increase in cholesterolemia compared with the control group [1]: −45%

CC(=O)O[C@@H]1[C@H](Oc2ccc(C(=O)c3ccc(C#N)cc3)cc2)OC[C@H](OC(C)=O)[C@H]1OC(C)=O [Example 14, [4-(4-Cyanobenzoyl)phenyl] 2,3,4-tri-O-acetyl-α-L-xylopyranoside]
Activity (%): percentage inhibition of the increase in cholesterolemia compared with the control group [1]: −36%

N#Cc1ccc(C(=O)c2ccc(O[C@@H]3OC[C@H](O)[C@@H](O)[C@@H]3O)cc2)cc1 [Example 15, [4-(4-Cyanobenzoyl)phenyl] α-L-xylopyranoside]
Activity (%): percentage inhibition of the increase in cholesterolemia compared with the control group [1]: −32%

CC(=O)O[C@@H]1[C@@H](OC(C)=O)[C@H](C)O[C@H](Oc2ccc(C(=O)c3ccc(C#N)cc3)cc2)[C@@H]1OC(C)=O [Example 16, [4-(4-Cyanobenzoyl)phenyl] 2,3,4-tri-O-acetyl-β-L-rhamnopyranoside]
Activity (%): percentage inhibition of the increase in cholesterolemia compared with the control group [1]: −37%

C[C@@H]1O[C@H](Oc2ccc(C(=O)c3ccc(C#N)cc3)cc2)[C@H](O)[C@H](O)[C@H]1O [Example 17, [4-(4-Cyanobenzoyl)phenyl] β-L-rhamnopyranoside]
Activity (%): percentage inhibition of the increase in cholesterolemia compared with the control group [1]: −50%

CC(=O)O[C@@H]1[C@@H](OC(C)=O)[C@H](Oc2ccc(C(=O)c3ccc(C#N)cc3)cc2)OC[C@@H]1OC(C)=O [Example 18, [4-(4-Cyanobenzoyl)phenyl] 2,3,4-tri-O-acetyl-α-L-arabinopyranoside]
Activity (%): percentage inhibition of the increase in cholesterolemia compared with the control group (single dose 10 mg/kg by tubage): −2* %

N#Cc1ccc(C(=O)c2ccc(O[C@@H]3OC[C@H](O)[C@H](O)[C@H]3O)cc2)cc1 [Example 19, [4-(4-Cyanobenzoyl)phenyl] α-L-arabinopyranoside]
Activity (%): percentage inhibition of the increase in cholesterolemia compared with the control group (single dose 10 mg/kg by tubage): −31* %
